Measured values from PubChem BioAssay AID330 (DTP/NCI, 2004).
Inconclusive results and toxic doses are left out.

Tested on: P388 leukemia ip, CD2F1 mice, survival T/C
Test: NCI In Vivo Anticancer Drug Screen. Data for tumor model P388 Leukemia (intraperitoneal) in CD2F1 (CDF1) mice
Conditions: endpoint: median survival time, higher = longer survival
Procedure, shortened: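 Mice carrying the transplanted tumor received test compound or vehicle. Survival was recorded in each group, and the value is the treated-group measurement divided by that of the vehicle-treated control group.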

[1] = dose: 50.0 mg/kg/injection, schedule: Q01DX005 (ip), vehicle: saline
[2] = dose: 100.0 mg/kg/injection, schedule: Q01DX005 (ip), vehicle: saline
[3] = dose: 200.0 mg/kg/injection, schedule: Q01DX005 (ip), vehicle: saline

CCOc1c(N=Nc2ccccc2[N+](=O)[O-])c(C)nn1C(=S)S
T/C (dose: 60.0 mg/kg/injection, schedule: Q01DX005 (ip), vehicle: Klucel + Tween-80): 103 % of control | T/C (dose: 120.0 mg/kg/injection, schedule: Q01DX005 (ip), vehicle: Klucel + Tween-80): 97 % of control | T/C (dose: 240.0 mg/kg/injection, schedule: Q01DX005 (ip), vehicle: Klucel + Tween-80): 92 % of control

O=C1c2ccccc2-c2c1c1ccccc1c(=O)n2-c1cccnc1
T/C (dose: 50.0 mg/kg/injection, schedule: Q01DX005 (ip), vehicle: saline with Tween-80): 111 % of control | T/C (dose: 100.0 mg/kg/injection, schedule: Q01DX005 (ip), vehicle: saline with Tween-80): 101 % of control | T/C (dose: 200.0 mg/kg/injection, schedule: Q01DX005 (ip), vehicle: saline with Tween-80): 97 % of control

CCOC(=O)C(C[N+](=O)[O-])(NC(=O)c1ccccc1)C(=O)OCC
T/C (dose: 60.0 mg/kg/injection, schedule: Q01DX005 (ip), vehicle: saline): 104 % of control | T/C (dose: 120.0 mg/kg/injection, schedule: Q01DX005 (ip), vehicle: saline): 105 % of control | T/C (dose: 240.0 mg/kg/injection, schedule: Q01DX005 (ip), vehicle: saline): 99 % of control

COC1=C(C)C(=O)c2c(C(C)C)cc(O)c(C=O)c2C1=O
T/C (dose: 3.0 mg/kg/injection, schedule: Q01DX009 (ip), vehicle: Klucel (hydroxypropylcellulose) (HPC)): 100 % of control | T/C (dose: 6.0 mg/kg/injection, schedule: Q01DX009 (ip), vehicle: Klucel (hydroxypropylcellulose) (HPC)): 100 % of control | T/C (dose: 12.0 mg/kg/injection, schedule: Q01DX009 (ip), vehicle: Klucel (hydroxypropylcellulose) (HPC)): 109 % of control | T/C (dose: 24.0 mg/kg/injection, schedule: Q01DX009 (ip), vehicle: Klucel (hydroxypropylcellulose) (HPC)): 109 % of control

COc1cc(Oc2c(C)c(Cl)c(OC)c(Cl)c2OC)c2c(c1Cl)COC2=O
T/C (dose: 7.5 mg/kg/injection, schedule: Q01DX005 (ip), vehicle: Klucel (hydroxypropylcellulose) (HPC)): 97 % of control | T/C (dose: 15.0 mg/kg/injection, schedule: Q01DX005 (ip), vehicle: Klucel (hydroxypropylcellulose) (HPC)): 97 % of control | T/C (dose: 30.0 mg/kg/injection, schedule: Q01DX005 (ip), vehicle: Klucel (hydroxypropylcellulose) (HPC)): 100 % of control

CC(C)SCNc1ncnc2c1ncn2C1OC(CO)C(O)C1O (configuration not stated)
T/C (dose: 100.0 mg/kg/injection, schedule: Q04DX002 (ip), vehicle: saline with Tween-80): 98 % of control

CSCCn1ccnc1[N+](=O)[O-]
T/C (dose: 12.5 mg/kg/injection, schedule: Q01DX009 (ip), vehicle: distilled water + Tween-80): 100 % of control | T/C (dose: 25.0 mg/kg/injection, schedule: Q01DX009 (ip), vehicle: distilled water + Tween-80): 96 % of control | T/C (dose: 50.0 mg/kg/injection, schedule: Q01DX009 (ip), vehicle: distilled water + Tween-80): 100 % of control | T/C (dose: 100.0 mg/kg/injection, schedule: Q01DX009 (ip), vehicle: distilled water + Tween-80): 101 % of control | T/C (dose: 200.0 mg/kg/injection, schedule: Q01DX009 (ip), vehicle: distilled water + Tween-80): 108 % of control

COc1ccc(-n2c(N)c(C#N)c3c(c2=S)CCC3)cc1
T/C (dose: 50.0 mg/kg/injection, schedule: Q01DX005 (ip), vehicle: Klucel + Tween-80): 106 % of control | T/C (dose: 100.0 mg/kg/injection, schedule: Q01DX005 (ip), vehicle: Klucel + Tween-80): 99 % of control | T/C (dose: 200.0 mg/kg/injection, schedule: Q01DX005 (ip), vehicle: Klucel + Tween-80): 92 % of control

C[n+]1c(-c2ccc(/C=N/Nc3ccnc(N/N=C/c4ccc(-c5cn6ccccc6[n+]5C)cc4)n3)cc2)cn2ccccc21
T/C (dose: 30.0 mg/kg/injection, schedule: Q01DX005 (ip), vehicle: saline with Tween-80): 150 % of control | T/C (dose: 60.0 mg/kg/injection, schedule: Q01DX005 (ip), vehicle: saline with Tween-80): 88 % of control

COC(=O)C1=C/CCCN(CCc2ccccc2)/C=C\1C(=O)OC
T/C (dose: 100.0 mg/kg/injection, schedule: Q01DX001 (ip), vehicle: alcohol): 103 % of control | T/C (dose: 200.0 mg/kg/injection, schedule: Q01DX001 (ip), vehicle: alcohol): 101 % of control | T/C (dose: 400.0 mg/kg/injection, schedule: Q01DX001 (ip), vehicle: alcohol): 97 % of control

Cc1cnc(Sc2c([N+](=O)[O-])ncn2C)nc1
T/C (dose: 50.0 mg/kg/injection, schedule: Q01DX009 (ip), vehicle: saline): 109 % of control | T/C (dose: 100.0 mg/kg/injection, schedule: Q01DX009 (ip), vehicle: saline): 104 % of control | T/C (dose: 200.0 mg/kg/injection, schedule: Q01DX009 (ip), vehicle: saline): 109 % of control

CCN(CC)CCCNc1nccc2ccc(OC)cc12
T/C [1]: 99 % of control | T/C [2]: 99 % of control | T/C [3]: 97 % of control

O=C(NCCCCNC(=O)C12CC3CC(CC(C3)C1)C2)C12CC3CC(CC(C3)C1)C2
T/C (dose: 50.0 mg/kg/injection, schedule: Q01DX005 (ip), vehicle: Klucel (hydroxypropylcellulose) (HPC)): 90 % of control | T/C (dose: 100.0 mg/kg/injection, schedule: Q01DX005 (ip), vehicle: Klucel (hydroxypropylcellulose) (HPC)): 90 % of control | T/C (dose: 200.0 mg/kg/injection, schedule: Q01DX005 (ip), vehicle: Klucel (hydroxypropylcellulose) (HPC)): 86 % of control

Nc1nnc2nc(C3(c4nc5nnc(N)n5[nH]c4=O)CCCC3=O)c(=O)[nH]n12
T/C [1]: 106 % of control | T/C [2]: 94 % of control | T/C [3]: 106 % of control
